The source of these data is ChEMBL document CHEMBL3797145, “Synthesis and evaluation of carbamate and aryl ether substituted pyrazinones as corticotropin releasing factor-1 (CRF₁) receptor antagonists” (Bioorg Med Chem Lett, 2016).

In data set [1] the target is T1, Corticotropin-releasing factor receptor 1 (Rattus norvegicus, UniProt P35353).
T1 sequence (P35353 whole entry): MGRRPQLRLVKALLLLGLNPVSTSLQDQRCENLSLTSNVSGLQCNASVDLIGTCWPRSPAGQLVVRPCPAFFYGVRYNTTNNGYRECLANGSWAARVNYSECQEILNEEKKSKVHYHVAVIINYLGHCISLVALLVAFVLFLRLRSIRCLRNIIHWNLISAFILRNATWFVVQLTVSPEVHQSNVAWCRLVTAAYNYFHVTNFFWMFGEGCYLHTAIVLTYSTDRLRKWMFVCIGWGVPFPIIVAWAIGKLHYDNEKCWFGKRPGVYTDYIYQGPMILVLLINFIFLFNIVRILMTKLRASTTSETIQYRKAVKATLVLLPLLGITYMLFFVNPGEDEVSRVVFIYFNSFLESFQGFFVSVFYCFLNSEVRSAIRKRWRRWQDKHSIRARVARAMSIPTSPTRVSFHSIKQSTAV
The experiment in a line: Displacement of [125I]Tyr-ovine-CRF from CRF1 receptor in rat frontal cortex homogenate after 2 hrs by gamma counting analysis. Type of data set: tissue-based.

The nature of data set [2]: Metabolic stability in human liver microsomes assessed as compound remaining after 10 mins. It counts as ADME. The note with it: read-out: Stability.
A short description of data set [3]: Metabolic stability in rat liver microsomes assessed as compound remaining after 10 mins. It counts as ADME. The note with it: read-out: Stability. (In general: Liver microsomes are vesicles of endoplasmic reticulum, rich in cytochrome P450 enzymes.)
Data set [4] has as its target T2, Corticotropin-releasing factor receptor 1 (Homo sapiens, UniProt P34998).
T2 sequence (P34998 whole entry): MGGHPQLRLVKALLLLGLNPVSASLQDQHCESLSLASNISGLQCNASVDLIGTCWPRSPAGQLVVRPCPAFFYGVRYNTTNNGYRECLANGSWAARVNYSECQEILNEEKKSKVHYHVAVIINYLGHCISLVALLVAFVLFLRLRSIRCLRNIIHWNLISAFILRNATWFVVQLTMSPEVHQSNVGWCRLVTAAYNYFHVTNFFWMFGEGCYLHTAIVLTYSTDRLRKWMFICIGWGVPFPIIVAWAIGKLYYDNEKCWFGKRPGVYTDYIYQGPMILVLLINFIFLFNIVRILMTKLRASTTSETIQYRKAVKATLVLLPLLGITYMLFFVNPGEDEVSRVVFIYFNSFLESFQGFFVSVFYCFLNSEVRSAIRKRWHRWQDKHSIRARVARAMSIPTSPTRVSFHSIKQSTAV
Kind of data set: (§1) Antagonist activity at CRF1 receptor in human Y79 cells assessed as inhibition of CRF-stimulated cAMP production preincubated for 30 mins followed by CRF addition measured after 30 mins by HTRF assay. Type of data set: functional, cell-based. Background: Changes in cAMP serve as a functional read-out for many G protein-coupled receptors.

Data set [5] has as its target T3, Corticotropin-releasing factor receptor 1 (Homo sapiens) (UniProt P34998).
T3 sequence (whole entry): T2 sequence (P34998 whole entry)
The description is as §1. It counts as functional, cell-based.

One may read the IC50 as the concentration needed to halve the response being measured. For `COc1nc(C)c(Nc2nc(Cl)cn([C@H](COc3cc(Br)ccn3)C3CC3)c2=O)cc1C`, the IC50 in data set [1] is 1.5 nM.

`COc1nc(C)c(Nc2nc(Cl)cn([C@H](COc3cccnc3)C3CC3)c2=O)cc1C` yielded an IC50 in data set [1] of 6.7 nM.

As to `CCCNC(=O)OC[C@H](C1CC1)n1cc(Cl)nc(Nc2cc(C)c(OC)nc2C)c1=O`, the IC50 in data set [1] was 10 nM. In data set [1], `COc1nc(C)c(Nc2nc(Cl)cn([C@H](COC(=O)c3ccccn3)C3CC3)c2=O)cc1C` gave an IC50 of 67 nM. The same measure, in the same setting: to `COc1nc(C)c(Nc2nc(Cl)cn([C@H](COC(=O)Nc3ccccc3Cl)C3CC3)c2=O)cc1C` belongs 1.5 nM.

Consider `Cc1cc(Nc2nc(Cl)cn([C@H](COC(=O)Nc3ccccc3)C3CC3)c2=O)c(C)nc1OC(F)F`, for which the remaining at 10 min in data set [2] turned out to be 77%; in data set [3] it was 75%. For the same molecule, the half-maximal inhibitory concentration (IC50) in data set [4] came out at 1.2 nM. Also, the inhibition result in data set [5] is “Dose-dependent effect”. Molecule `COc1nc(C)c(Nc2nc(Cl)cn([C@H](COC(=O)Nc3cccc(C#N)c3)C3CC3)c2=O)cc1C` showed an IC50 in data set [1] of 1.3 nM. Regarding `COc1ccc(NC(=O)OC[C@H](C2CC2)n2cc(Cl)nc(Nc3cc(C)c(OC)nc3C)c2=O)c(C)n1`, the IC50 in data set [1] is 9.2 nM. In data set [1], `COc1nc(C)c(Nc2nc(Cl)cn([C@H](COc3ccc(C#N)cn3)C3CC3)c2=O)cc1C` had an IC50 of 7.7 nM. Molecule `COc1nc(C)c(Nc2nc(Cl)cn([C@H](COC(=O)c3cccnc3)C3CC3)c2=O)cc1C` showed a half-maximal inhibitory concentration (IC50) in data set [1] of 5.2 nM. The same measure, in the same setting: to `COc1nc(C)c(Nc2nc(Cl)cn([C@H](COC(=O)c3ccccc3)C3CC3)c2=O)cc1C` belongs 1.5 nM; to `COc1nc(C)c(Nc2nc(Cl)cn([C@H](COc3cc(C#N)ccn3)C3CC3)c2=O)cc1C`, 6.8 nM. `COc1nc(C)c(Nc2nc(Cl)cn([C@H](COc3ccccn3)C3CC3)c2=O)cc1C` gave an IC50 in data set [1] of 1.2 nM. In data set [1], `COc1nc(C)c(Nc2nc(Cl)cn([C@H](COC(=O)c3ccncc3)C3CC3)c2=O)cc1C` displayed a 50% inhibitory concentration (IC50) of 4.9 nM.

The molecule `CCNC(=O)OC[C@H](C1CC1)n1cc(Cl)nc(Nc2cc(C)c(OC)nc2C)c1=O` gave a concentration for half-maximal inhibition (IC50) in data set [1] of 14 nM. For `COc1nc(C)c(Nc2nc(Cl)cn([C@H](COC(=O)Nc3cc(Cl)cc(Cl)c3)C3CC3)c2=O)cc1C`, the IC50 in data set [1] was determined as 1.7 nM.

Regarding `COc1nc(C)c(Nc2nc(Cl)cn([C@H](COC(C)=O)C3CC3)c2=O)cc1C`, the half-inhibitory concentration (IC50) in data set [1] was 5.3 nM. `Cc1cc(Nc2nc(Cl)cn([C@H](COC(=O)Nc3cccnc3)C3CC3)c2=O)c(C)nc1OC(F)F`: the remaining at 10 min in data set [2] amounted to 71%; in data set [3] it was 52%. The molecule also yielded an IC50 in data set [1] of 1.9 nM. Turning to `COc1nc(C)c(Nc2nc(Cl)cn([C@H](COC(=O)Nc3ccc(Cl)cc3)C3CC3)c2=O)cc1C`, the half-maximal inhibitory concentration (IC50) in data set [1] was found to be 1.6 nM. `COc1nc(C)c(Nc2nc(Cl)cn([C@H](COc3ccc(C(F)(F)F)cn3)C3CC3)c2=O)cc1C` registered a 50% inhibitory concentration (IC50) in data set [1] of 1.6 nM. As to `COc1nc(C)c(Nc2nc(Cl)cn([C@H](COC(=O)Nc3cccnc3)C3CC3)c2=O)cc1C`, the values for the remaining at 10 min in data set [2] and in data set [3] were 36% and 35%, respectively. Further, the IC50 in data set [1] came to 10 nM. As for `COc1nc(C)c(Nc2nc(Cl)cn([C@H](COC(=O)Nc3ccccc3)C3CC3)c2=O)cc1C`, the remaining at 10 min came out at 32% in data set [2] and 33% in data set [3]. In data set [1], this molecule yielded an IC50 of 1.5 nM. In the case of `COC[C@H](C1CC1)n1cc(Cl)nc(Nc2cc(C)c(OC(F)F)nc2C)c1=O`, the concentration for half-maximal inhibition (IC50) in data set [1] is 0.29 nM. Same read-out and setting: the value for `COc1nc(C)c(Nc2nc(Cl)cn([C@H](CO)C3CC3)c2=O)cc1C` was 88 nM. With `COc1nc(C)c(Nc2nc(Cl)cn([C@H](COC(=O)Nc3ccc(Cl)cc3Cl)C3CC3)c2=O)cc1C`, the IC50 in data set [1] was found to be 1.7 nM.
